In patent US8637525B2, “Compounds for the reduction of beta-amyloid production” (Bristol-Myers Squibb Company, priority 2009, dated 2014):
Read-outs that look alike come from different tables or passages of the source. Values belong to the molecule of their own block, whether it stands above or below them.

Tested on: Aβ1-42 production
Experiment: Cellular assay for inhibition of Aβ1-42 production (H4 APP751 SWE clone 8.20)
Type: cell-based
Conditions: H4 APP751 SWE clone 8.20 cells, 19 h incubation
Description: Cellular Assays for Inhibition of Aβ1-40 and Aβ1-42 Production
H4 cells stably transfected with APP751 containing the Swedish mutation (H4 APP751 SWE clone 8.20, developed at BMS) were maintained in log phase through twice weekly passage at a 1:20 split. […] Following incubation for 19 h in 5% CO2 at 37° C., plates were briefly centrifuged (1000 rpm, 5 min). A 10 μl aliquot from each well was transferred to a second assay plate (Costar 3709) for Aβ40 measurements. Antibody cocktails were freshly prepared by dilution into 40 mM Tris-HCl (pH 7.4) with 0.2% BSA and added to assay plates. For Aβ42 measurements, antibodies specific for the Aβ42 neoepitope (565, developed at BMS; conjugated to the Wallac reagent (Perkin Elmer)) and the N-terminal sequence of Aβ peptide (26D6, developed at SIBIA; conjugated to APC (Perkin Elmer)) were mixed and 20 μl of the mixture was added to each well of the incubated cell plate yielding a final concentration of 0.8 ng/well 565 and 75 ng/well 26D6. For the Aβ40 measurements, antibodies specific for the Aβ40 neoepitope (TSD, developed at BMS; conjugated to the Wallac reagent (Perkin Elmer)) and 26D6 as described above were mixed and 20 μl of the mixture was added to the 10 μl aliquots which had been removed previously from the cell plate yielding a final concentration of 1.6 ng/well TSD and 17.5 ng/well 26D6. Assay plates containing antibodies were sealed with aluminum foil and incubated overnight at 4° C. Signal was determined using a Viewlux counter (Perkin Elmer) and IC50 values determined using curve fitting in CurveMaster (Excel Fit based).

[1] = 19 h, class symbols, read-out: Activity Rating (Aβ42 cellular IC50)
[2] = 19 h, read-out: Activity Rating (Aβ42 cellular IC50), numeric value
[3] = class symbols, read-out: Activity Rating (Aβ42 cellular IC50)

SMILES: CCNc1nc(Nc2ccc(-n3ncnc3C)c(F)c2)nc2c1COC2c1ccc(F)cc1 (centres unmarked) [Example 78, N^4-ethyl-N^2-(3-fluoro-4-(5-methyl-1H-1,2,4-triazol-1-yl)phenyl)-7-(4-fluorophenyl)-5,7-dihydrofuro[3,4-d]pyrimidine-2,4-diamine]
IC50 [1]: 10 to 100 nM

SMILES: COc1cc(Nc2nc(N(C)C)c3c(n2)C(O)(c2ccccc2)CC3)ccc1-n1cnc(Cl)c1 (centres unmarked) [Example 179, 2-(4-(4-chloro-1H-imidazol-1-yl)-3-methoxyphenylamino)-4-(dimethylamino)-7-phenyl-6,7-dihydro-5H-cyclopenta[d]pyrimidin-7-ol]
IC50 [1]: 10 to 100 nM

SMILES: Cc1ncnn1-c1ccc(Nc2nc3c(c(N(C)C)n2)COCC3c2ccc(Cl)cc2)cc1F (centres unmarked) [Example 67, 8-(4-chlorophenyl)-N^2-(3-fluoro-4-(5-methyl-1H-1,2,4-triazol-1-yl)phenyl)-N^4,N^4-dimethyl-7,8-dihydro-5H-pyrano[4,3-d]pyrimidine-2,4-diamine]
IC50 [1]: 10 to 100 nM

SMILES: CNc1nc(Nc2ccc(-n3cnc(Cl)n3)c(OC)c2)nc2c1CCC2c1cc(F)c(F)c(F)c1 (centres unmarked) [Example 106, N^2-(4-(3-chloro-1H-1,2,4-triazol-1-yl)-3-methoxyphenyl)-N^4-methyl-7-(3,4,5-trifluorophenyl)-6,7-dihydro-5H-cyclopenta[d]pyrimidine-2,4-diamine]
IC50 [1]: 10 to 100 nM

SMILES: COc1cc(Nc2nc3c(c(N4CCC(O)(C(F)(F)F)C4)n2)CCC3c2ccc(F)cc2)ccc1-n1cnc(Cl)c1 (single isomer, unassigned) [Example 28, 1-(2-(4-(4-chloro-1H-imidazol-1-yl)-3-methoxyphenylamino)-7-(4-fluorophenyl)-6,7-dihydro-5H-cyclopenta[d]pyrimidin-4-yl)-3-(trifluoromethyl)pyrrolidin-3-ol]
IC50 [3]: 10 to 100 nM

SMILES: COc1cc(Nc2nc3c(c(N4CC[C@@H](F)C4)n2)CCN(S(C)(=O)=O)C3c2ccc(F)cc2)ccc1-n1cnc(Cl)c1 (some centres unmarked) [Example 174]
IC50 [1]: 10 to 100 nM

SMILES: CCNc1nc(Nc2ccc(-n3cnc(Cl)c3)c(OC)c2)nc2c1CN(CC(F)F)CC2c1ccccc1 (centres unmarked) [Example 197, N4-ethyl-N2-(3-methoxy-4-(4-chloro-1H-13-imidazol-1-yl)phenyl)-8-phenyl-6-(2,2-difluoroethyl)-5,6,7,8-tetrahydropyrido[4,3-d]pyrimidine-2,4-diamine]
IC50 (read-out: Activity Rating (Aβ42 cellular IC50), numeric value): 16 nM

SMILES: COc1cc(Nc2nc3c(c(N4CC=C(F)CC4)n2)CCC3c2ccc(F)cc2)ccc1-n1cnc(Cl)c1 (centres unmarked) [Example 40A, N-(4-(4-chloro-1H-imidazol-1-yl)-3-methoxyphenyl)-4-(4-fluoro-5,6-dihydropyridin-1(2H)-yl)-7-(4-fluorophenyl)-6,7-dihydro-5H-cyclopenta[d]pyrimidin-2-amine]
IC50 [3]: 1.5 to 9.9 nM

SMILES: COc1cc(Nc2nc3c(c(N4C[C@@H](C)O[C@@H](C)C4)n2)CCC3c2ccc(F)cc2)ccc1-n1cnc(Cl)c1 (single isomer, unassigned) [Example 21A]
IC50 [3]: 10 to 100 nM

SMILES: COc1cc(Nc2nc3c(c(N(C)C)n2)CCC3c2ccc(Cl)cc2)ccc1-n1cnc(Cl)c1 (centres unmarked) [Example 92, N^2-(4-(4-Chloro-1H-imidazol-1-yl)-3-methoxyphenyl)-7-(4-chlorophenyl)-N^4,N^4-dimethyl-6,7-dihydro-5H-cyclopenta[d]pyrimidine-2,4-diamine]
IC50 [1]: 10 to 100 nM

SMILES: COc1cc(Nc2nc(N[C@H](C)C3CC3)c3c(n2)C(c2ccc(F)cc2)CC3)ccc1-n1cnc(Cl)c1 (single isomer, unassigned) [Example 49A]
IC50 [3]: 1.5 to 9.9 nM

SMILES: CNc1nc(Nc2ccc(-n3cnc(C)n3)c(OC)c2)nc2c1CN(C)CC2c1ccc(F)cc1 (centres unmarked) [Example 198, 8-(4-fluorophenyl)-N2-(3-methoxy-4-(3-methyl-1H-1,2,4-triazol-1-yl)phenyl)-N4,6-dimethyl-5,6,7,8-tetrahydropyrido[4,3-d]pyrimidine-2,4-diamine]
IC50 [3]: 10 to 100 nM

SMILES: CNc1nc(Nc2cc(F)cc(F)c2)nc2c1CCC2c1ccccc1 (centres unmarked) [Example 219, N2-(3,5-difluorophenyl)-N4-methyl-7-phenyl-6,7-dihydro-5H-cyclopenta[d]pyrimidine-2,4-diamine]
IC50 [1]: > 1000 nM

SMILES: COc1cc(Nc2nc3c(c(N4CC(Cl)C4)n2)CCC3c2ccccc2)ccc1-n1cnc(Cl)c1 (centres unmarked) [Example 181, N-(4-(4-chloro-1H-imidazol-1-yl)-3-methoxyphenyl)-4-(3-chloroazetidin-1-yl)-7-phenyl-6,7-dihydro-5H-cyclopenta[d]pyrimidin-2-amine]
IC50 [3]: 10 to 100 nM

SMILES: CNc1nc(Nc2ccc(Br)c(OC)c2)nc2c1CCC2c1ccccc1 (centres unmarked) [Example 256, N2-(4-bromo-3-methoxyphenyl)-N4-methyl-7-phenyl-6,7-dihydro-5H-cyclopenta[d]pyrimidine-2,4-diamine]
IC50 [2]: 97 nM

SMILES: COc1cc(Nc2nc3c(c(N4CCC(C(F)(F)F)C4)n2)CCC3c2ccc(F)cc2)ccc1-n1cnc(Cl)c1 (racemic) [Example 41, N-(4-(4-chloro-1H-imidazol-1-yl)-3-methoxyphenyl)-7-(4-fluorophenyl)-4-(3-(trifluoromethyl)pyrrolidin-1-yl)-6,7-dihydro-5H-cyclopenta[d]pyrimidin-2-amine]
IC50 [1]: 10 to 100 nM

SMILES: CNc1nc(Nc2ccc(C3(C#N)CCCC3)cc2)nc2c1CCC2c1ccccc1 (centres unmarked) [Example 244, 1-(4-(4-(methylamino)-7-phenyl-6,7-dihydro-5H-cyclopenta[d]pyrimidin-2-ylamino)phenyl)cyclopentanecarbonitrile]
IC50 [1]: > 1000 nM

SMILES: COc1cc(Nc2nc3c(c(N4CC(N(C)C)C4)n2)CCC3c2ccc(F)cc2)ccc1-n1cnc(Cl)c1 (centres unmarked) [Example 34, N-(4-(4-chloro-1H-imidazol-1-yl)-3-methoxyphenyl)-4-(3-(dimethylamino)azetidin-1-yl)-7-(4-fluorophenyl)-6,7-dihydro-5H-cyclopenta[d]pyrimidin-2-amine]
IC50 [1]: 10 to 100 nM

Continued, values first:

IC50 [1]: 10 to 100 nM
SMILES: CNc1nc(Nc2ccc(-n3cnc(C)n3)c(OC)c2)nc2c1CC[C@@H]2c1cccc(OC)c1 [Example 272B, (R)—N2-(3-methoxy-4-(3-methyl-1H-1,2,4-triazol-1-yl)phenyl)-7-(3-methoxyphenyl)-N4-methyl-6,7-dihydro-5H-cyclopenta[d]pyrimidine-2,4-diamine]

IC50 [2]: 540 nM
SMILES: Cc1ncnn1-c1ccc(Nc2nc3c(c(N(C)C)n2)COCC3c2ccc(Cl)cc2)cc1F (single isomer, unassigned) [Example 67B, 8-(4-chlorophenyl)-N^2-(3-fluoro-4-(5-methyl-1H-1,2,4-triazol-1-yl)phenyl)-N^4,N^4-dimethyl-7,8-dihydro-5H-pyrano[4,3-d]pyrimidine-2,4-diamine]

IC50 [3]: 1.5 to 9.9 nM
SMILES: [2H]C([2H])([2H])Nc1nc(Nc2ccc(-n3cnc(Cl)c3)c(OC)c2)nc2c1CCC2c1ccccc1 (single isomer, unassigned) [Example 176B, N^2-(4-(4-Chloro-1H-imidazol-1-yl)-3-methoxyphenyl)-N^4-trideuteromethyl-7-phenyl-6,7-dihydro-5H-cyclopenta[d]pyrimidine-2,4-diamine]

IC50 [2]: 4.5 nM
SMILES: CCNc1nc(Nc2ccc(-n3cnc(Cl)c3)c(OC)c2)nc2c1CCOC2c1ccc(F)cc1 (centres unmarked) [Example 88A, N2-(4-(4-chloro-1H-imidazol-1-yl)-3-methoxyphenyl)-N4-ethyl-8-(4-fluorophenyl)-6,8-dihydro-5H-pyrano[3,4-d]pyrimidine-2,4-diamine]

IC50 [3]: 1.5 to 9.9 nM
SMILES: COc1cc(Nc2nc3c(c(N4CC(Cl)C4)n2)CCC3c2ccccc2)ccc1-n1cnc(Cl)c1 (centres unmarked) [Example 181A, N-(4-(4-chloro-1H-imidazol-1-yl)-3-methoxyphenyl)-4-(3-chloroazetidin-1-yl)-7-phenyl-6,7-dihydro-5H-cyclopenta[d]pyrimidin-2-amine]

IC50 [1]: 100 to 1000 nM
SMILES: CNc1nc(Nc2ccc(-n3cnc(C#N)c3)c(OC)c2)nc2c1CCC2c1ccccc1 (centres unmarked) [Example 204B, 1-(2-methoxy-4-(4-(methylamino)-7-phenyl-6,7-dihydro-5H-cyclopenta[d]pyrimidin-2-ylamino)phenyl)-1H-imidazole-4-carbonitrile]

IC50 [1]: 10 to 100 nM
SMILES: CNc1nc(Nc2ccc(-n3cnc(Cl)c3)c(OC)c2)nc2c1/C(=N/OC)CC2c1ccccc1 (centres unmarked) [Example 201B, (E)-2-(4-(4-chloro-1H-imidazol-1-yl)-3-methoxyphenylamino)-4-(methylamino)-7-phenyl-6,7-dihydro-5H-cyclopenta[d]pyrimidin-5-one O-methyl oxime]

IC50 [3]: 1.5 to 9.9 nM
SMILES: COc1cc(Nc2nc3c(c(N4CCC4)n2)CCC3c2ccc(OC(F)(F)F)cc2)ccc1-n1cnc(Cl)c1 (single isomer, unassigned) [Example 101A, 4-(azetidin-1-yl)-N-(4-(4-chloro-1H-imidazol-1-yl)-3-methoxyphenyl)-7-(4-(trifluoromethoxy)phenyl)-6,7-dihydro-5H-cyclopenta[d]pyrimidin-2-amine]
